In publication PMC4526861, “Inhibition of protein kinase C by isojacareubin suppresses hepatocellular carcinoma metastasis and induces apoptosis in vitro and in vivo” (Scientific Reports, 2015):

Legend:
HepG2 cells [1] = test: Wound healing (migration) assay; assay type: cell-based, human; conditions: 10 μM, 24 h
Procedure: Cell migration and invasion potencies were studied using wound healing and Matrigel invasion assays. The wound healing assay was performed by scratching the cell surface with a 10 μL pipette tip. Then, the cells were treated with compound 7 and ISJ (10 μM) and incubated for 24 h before being photographed under a microscope (DMI3000 B, Leica). Wound closure was evaluated using ImageJ software. Invasion through a Matrigel-coated filter was measured in transwell chambers (Corning Costa) as described previously, with minor modifications. Briefly, HepG2 Cells (2 × 10^5/well) were suspended in serum-free medium and added to the upper chamber of the Matrigel plate. FBS (10%) was used as the chemoattractant in the lower chamber. After incubation for 24 h, the non-invading cells were removed from the upper surface of the insert membrane with a cotton swab. The invading cells were fixed with methanol and stained with Giemsa (Sigma). Cells in five randomly selected fields were photographed, and the numbers of cells that crossed the membrane were counted.

QSG-7701 hepatocytes = test: Cell proliferation assay (CCK-8), QSG-7701 hepatocytes; assay type: cell-based, human; conditions: nonmalignant hepatocytes; mean ± SD
Procedure: (§1) The human HCC cell lines QGY-7703, SMMC-7721 and HepG2 and the liver cell line QSG-7701 were supplied by the Cell Resource Center, Institute of Life Sciences, Chinese Academy of Medical Science. QGY-7703, SMMC-7721 and QSG-7701 cells were cultured in 1640 medium (Gibco), and HepG2 cells were cultured in DMEM medium (Gibco) at 37 °C in moist air supplemented with 5% CO2. All media were supplemented with 10% fetal bovine serum (FBS) and 100 Units/mL of penicillin/streptomycin.
(§2) The cell viability assay was performed as previously reported using a Cell Counting Kit-8 (CCK-8; Dojindo, Kumamoto, Japan)[33][34]. The relative cell viability was presented as % inhibition and calculated using the following formula: […]

HepG2 cells [2] = test: Cell proliferation assay (CCK-8), HepG2; assay type: cell-based, human
Procedure: as §1, §2

PKCε = target: T1, PKCε (Homo sapiens, UniProt Q02156); test: Cell-based pull-down assay, PKCε; assay type: binding; conditions: HepG2 lysates
T1 construct: Endogenous cPKC (PKCα) and nPKC (PKCδ, PKCε and PKCμ) in HepG2 lysates were pulled down; endogenous in cells; host or cells: HepG2
T1 sequence (Q02156 1-737): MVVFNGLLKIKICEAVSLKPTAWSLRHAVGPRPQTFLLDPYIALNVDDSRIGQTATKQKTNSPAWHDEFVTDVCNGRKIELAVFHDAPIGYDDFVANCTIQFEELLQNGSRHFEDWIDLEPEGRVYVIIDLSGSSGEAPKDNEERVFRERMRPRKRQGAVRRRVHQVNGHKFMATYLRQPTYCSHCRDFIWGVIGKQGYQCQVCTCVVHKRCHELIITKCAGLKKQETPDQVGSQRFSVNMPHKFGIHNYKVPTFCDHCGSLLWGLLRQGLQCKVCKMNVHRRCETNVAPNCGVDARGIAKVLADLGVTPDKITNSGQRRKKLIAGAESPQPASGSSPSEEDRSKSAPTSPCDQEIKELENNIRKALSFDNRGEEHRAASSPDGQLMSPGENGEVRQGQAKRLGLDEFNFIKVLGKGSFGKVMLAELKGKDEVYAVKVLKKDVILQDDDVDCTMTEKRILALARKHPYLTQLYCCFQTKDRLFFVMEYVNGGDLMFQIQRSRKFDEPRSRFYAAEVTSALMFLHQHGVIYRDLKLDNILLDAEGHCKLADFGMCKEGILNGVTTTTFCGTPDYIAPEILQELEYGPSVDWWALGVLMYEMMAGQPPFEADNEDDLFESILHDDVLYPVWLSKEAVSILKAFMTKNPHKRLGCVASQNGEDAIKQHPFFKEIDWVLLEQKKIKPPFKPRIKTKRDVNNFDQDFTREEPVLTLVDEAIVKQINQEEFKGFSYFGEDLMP
Procedure: To identify whether ISJ and compound 7 target PKC in cells, we performed pull-down experiments using ISJ- and compound 7-coupled Sepharose beads with HepG2 cell lysates. Endogenous cPKC (PKCα) and nPKC (PKCδ, PKCε and PKCμ) in HepG2 lysates were pulled down by ISJ-coupled CNBr-activated Sepharose 4B beads (Fig. 5a).
The control beads were prepared by incubating the beads with DMSO. Proteins (500 μg) from lysed HepG2 cells were mixed with either the control beads, compound 7-coupled beads, or ISJ-coupled beads (100 μL) in reaction buffer [50 mM Tris (pH 7.5), 5 mM EDTA, 150 mM NaCl, 1 mM DTT, 0.01% NP-40, 2 μg/mL BSA, 1 mM PMSF, 1% protease inhibitor mixture]. After incubation with gentle rocking overnight at 4 °C, the beads were washed 5 times with washing buffer [50 mM Tris (pH 7.5), 5 mM EDTA, 150 mM NaCl, 1 mM DTT, 0.01% NP-40, 1 mM PMSF], and binding was visualized by western blotting.

[3] = test system: c-PARP, c-Cas3 and c-Cas9 in xenograft tumors; test: Histology, IHC and immunoblot of xenograft tumors; assay type: in vivo, BALB/c-nu nude mice; conditions: 5 mg/kg
Procedure: The total membrane and cytosolic proteins were extracted using a Membrane and Cytosol Protein Extraction Kit (Beyotime). Extracted proteins from cells or animal tissues were separated by SDS-PAGE and transferred to polyvinylidene difluoride (PVDF) membranes (Bio-Rad). The PVDF membranes were blocked with 5% nonfat milk and incubated with primary antibodies overnight, followed by incubation with a donkey anti-rabbit or anti-mouse secondary antibody (IRDye 800, LI-COR, Biosciences). The images were captured using the Odyssey Infrared Imaging System (LI-COR, Biosciences), according to the manufacturer's instructions. The intensity was quantitative with Quantity One software (Bio-Rad). To ensure equal protein loading, each membrane was stripped and reprobed with an anti-β-actin antibody. All experiments were repeated independently no less than three times.
To further confirm the antitumor activities of compound 7 and ISJ in vivo, histological analysis was performed on the hepatoma xenografts. Briefly, the samples were fixed in a 10% formalin solution, processed, embedded, sectioned and either H&E stained to reveal tumor tissue necrosis or IHC stained using antibodies against c-PARP, c-Cas3 or c-Cas9. The H&E and IHC images were obtained on a Leica DMI3000 B phase-contrast microscopy. The immunoreactive areas in the IHC images were quantified using ImagePro Plus 6.0 software (Media Cybernetics, Silver Spring, MD). The integrated optical density (IOD) values were represented as the mean ± SEM.

Substance: Isojacareubin [ISJ]
- decrease of HepG2 cell migration compared to control (HepG2 cells [1]): 77.8%
- IC50 (QSG-7701 hepatocytes): 47.67 ± 0.08 µM
- Inhibitory Ratio (%) HepG2 (HepG2 cells [2]; 50 μM): 91.54%
- IC50 (HepG2 cells [2]; mean ± SD, at least three independent experiments): 2.45 ± 0.23 µM
- pull-down of endogenous PKCε by compound-coupled Sepharose 4B beads (PKCε): pulled down
- H&E staining of xenograft tumors [3]: significant tissue death
- IHC c-PARP, c-Cas3 and c-Cas9 levels in tumors [3]: upregulated expression
- immunoblot c-PARP, c-Cas3 and c-Cas9 levels in tumor tissue [3]: increased
